Data reported in ChEMBL document CHEMBL4725331, “An investigative study of antitumor properties of a novel thiazolo[4,5-d]pyrimidine small molecule revealing superior antitumor activity with CDK1 selectivity and potent pro-apoptotic properties” (Bioorg Med Chem, 2020).

How the values were obtained:
[1] = tested on: HCT-116; test: Induction of apoptosis in human HCT-116 cells assessed as late apoptotic cells at IC50 incubated for 48 hrs by annexin-V FITC and propidium iodide staining based flow cytometry analysis (reference value: 0.28 %); type: functional
[2] = tested on: HCT-15; test: Antiproliferative activity against human HCT-15 cells assessed as inhibition of cell growth at 10 uM measured after 48 hrs by SRB assay relative to control; type: functional
[3] = tested on: K562; test: Antiproliferative activity against human K562 cells assessed as inhibition of cell growth measured after 48 hrs by SRB assay; type: functional
[4] = tested on: OVCAR-4; test: Antiproliferative activity against human OVCAR-4 cells assessed as inhibition of cell growth measured after 48 hrs by SRB assay; type: functional
[5] = tested on: UACC-62; test: Antiproliferative activity against human UACC-62 cells assessed as inhibition of cell growth at 10 uM measured after 48 hrs by SRB assay relative to control; type: functional
[6] = tested on: SW-620; test: Antiproliferative activity against human SW-620 cells assessed as inhibition of cell growth at 10 uM measured after 48 hrs by SRB assay relative to control; type: functional
[7] = tested on: HL-60(TB); test: Antiproliferative activity against human HL-60(TB) cells assessed as inhibition of cell growth measured after 48 hrs by SRB assay; type: functional
[8] = tested on: HCT-116; test: Cell cycle arrest in human HCT-116 cells assessed as accumulation in G0/G1 phase at IC50 concentration incubated for 48 hrs by propidium iodide staining based flow cytometry analysis (reference value: 42.5 %); type: functional
[9] = tested on: SW-620; test: Antiproliferative activity against human SW-620 cells assessed as inhibition of cell growth measured after 48 hrs by SRB assay; type: functional
[10] = tested on: OVCAR-8; test: Antiproliferative activity against human OVCAR-8 cells assessed as inhibition of cell growth at 10 uM measured after 48 hrs by SRB assay relative to control; type: functional
[11] = tested on: MDA-MB-435; test: Antiproliferative activity against human MDA-MB-435 cells assessed as inhibition of cell growth measured after 48 hrs by SRB assay; type: functional
[12] = tested on: WI-38; test: Cell cycle arrest in human WI-38 cells assessed as accumulation in sub-G phase at IC50 concentration incubated for 48 hrs by propidium iodide staining based flow cytometry analysis (reference value: 1.35 %); details: wi-38, 48 h
[13] = tested on: SR; test: Antiproliferative activity against human SR cells assessed as inhibition of cell growth measured after 48 hrs by SRB assay; type: functional
[14] = tested on: MDA-MB-231; test: Antiproliferative activity against human MDA-MB-231 cells assessed as inhibition of cell growth measured after 48 hrs by SRB assay; type: functional
[15] = tested on: MDA-MB-435; test: Antiproliferative activity against human MDA-MB-435 cells assessed as inhibition of cell growth at 10 uM measured after 48 hrs by SRB assay relative to control; type: functional
[16] = tested on: HCT-116; test: Cell cycle arrest in human HCT-116 cells assessed as accumulation in sub-G phase at IC50 concentration incubated for 48 hrs by propidium iodide staining based flow cytometry analysis (reference value: 2.4 %); type: functional
[17] = tested on: OVCAR-8; test: Antiproliferative activity against human OVCAR-8 cells assessed as inhibition of cell growth measured after 48 hrs by SRB assay; type: functional
[18] = tested on: NCI-H23; test: Antiproliferative activity against human NCI-H23 cells assessed as inhibition of cell growth measured after 48 hrs by SRB assay; type: functional
[19] = tested on: RPMI-8226; test: Antiproliferative activity against human RPMI-8226 cells assessed as inhibition of cell growth measured after 48 hrs by SRB assay; type: functional
[20] = tested on: HCT-116; test: Cytotoxicity against human HCT-116 cells assessed as reduction in cell viability after 48 hrs by MTT assay; type: functional, cell-based; details: HCT-116, 48 h
[21] = tested on: OVCAR-3; test: Antiproliferative activity against human OVCAR-3 cells assessed as inhibition of cell growth measured after 48 hrs by SRB assay; type: functional
[22] = tested on: HOP-92; test: Antiproliferative activity against human HOP-92 cells assessed as inhibition of cell growth at 10 uM measured after 48 hrs by SRB assay relative to control; type: functional
[23] = tested on: WI-38; test: Cell cycle arrest in human WI-38 cells assessed as accumulation in G2/M phase phase at IC50 concentration incubated for 48 hrs by propidium iodide staining based flow cytometry analysis (reference value: 7.16 %); details: wi-38, 48 h
[24] = tested on: Hs-578T; test: Antiproliferative activity against human Hs-578T cells assessed as inhibition of cell growth at 10 uM measured after 48 hrs by SRB assay relative to control; type: functional
[25] = tested on: HCT-116; test: Cell cycle arrest in human HCT-116 cells assessed as accumulation in G2/M phase phase at IC50 concentration incubated for 48 hrs by propidium iodide staining based flow cytometry analysis (reference value: 13.75 %); type: functional
[26] = tested on: HCT-15; test: Antiproliferative activity against human HCT-15 cells assessed as inhibition of cell growth measured after 48 hrs by SRB assay; type: functional
[27] = tested on: HCT-116; test: Antiproliferative activity against human HCT-116 cells assessed as inhibition of cell growth measured after 48 hrs by SRB assay; type: functional
[28] = tested on: RXF 393; test: Antiproliferative activity against human RXF 393 cells assessed as inhibition of cell growth measured after 48 hrs by SRB assay; type: functional
[29] = tested on: WI-38; test: Induction of apoptosis in human WI-38 cells assessed as early apoptotic cells at IC50 incubated for 48 hrs by annexin-V FITC and propidium iodide staining based flow cytometry analysis (reference value: 0.39 %); type: cell-based; details: wi-38, 48 h
[30] = tested on: HCT-116; test: Induction of apoptosis in human HCT-116 cells assessed as necrotic cells at IC50 incubated for 48 hrs by annexin-V FITC and propidium iodide staining based flow cytometry analysis (reference value: 0.51 %); type: functional
[31] = tested on: A549; test: Antiproliferative activity against human A549 cells assessed as inhibition of cell growth measured after 48 hrs by SRB assay; type: functional
[32] = tested on: HCT-116; test: Induction of apoptosis in human HCT116 cells assessed as increase in p53 gene expression by RT-PCR analysis relative to untreated control; type: functional
[33] = Selectivity index, ratio of IC50 for human WI-38 cells to IC50 for human HCT116 cells after 48 hrs by MTT assay; type: toxicity; details: WI-38 cells versus HCT116 cells, read-out: Ratio IC50
[34] = read-out: LC50 (the source's name)

Compound: COc1ccc(-n2c(=S)sc3c(Cl)nc(C)nc32)c(OC)c1
- Activity [1]: 12.78%
- inhibition at 10 µM [2]: > 50%
- GI50 [3]: 1.2 µM
- TGI [3]: 3.8 µM
- CC50 [3, 34]: > 100 µM
- GI50 [4]: 4.68 µM
- TGI [4]: 15.5 µM
- CC50 [4, 34]: 41.7 µM
- inhibition at 10 µM [5]: > 50%
- inhibition at 10 µM [6]: > 50%
- GI50 [7]: 1.41 µM
- TGI [7]: 5.89 µM
- CC50 [7, 34]: > 100 µM
- Activity [8]: 22.42%
- GI50 [9]: 2.57 µM
- TGI [9]: 5.5 µM
- CC50 [9, 34]: 28.8 µM
- inhibition at 10 µM [10]: > 50%
- GI50 [11]: 2.14 µM
- TGI [11]: 3.89 µM
- CC50 [11, 34]: 7.24 µM
- Activity [12]: 6.1%
- GI50 [13]: 1.41 µM
- TGI [13]: 5.5 µM
- CC50 [13, 34]: > 100 µM
- GI50 [14]: 3.16 µM
- TGI [14]: 10.2 µM
- CC50 [14, 34]: 34.7 µM
- inhibition at 10 µM [15]: > 50%
- Activity [16]: 17.67%
- GI50 [17]: 2.69 µM
- TGI [17]: 7.41 µM
- CC50 [17, 34]: 40.7 µM
- GI50 [18]: 2.45 µM
- TGI [18]: 5.89 µM
- CC50 [18, 34]: 57.5 µM
- GI50 [19]: 3.47 µM
- TGI [19]: 14.1 µM
- CC50 [19, 34]: > 100 µM
- IC50 [20]: 5.34 µM
- GI50 [21]: 1.78 µM
- TGI [21]: 3.24 µM
- CC50 [21, 34]: 5.89 µM
- inhibition at 10 µM [22]: > 50%
- Activity [23]: 12.27%
- inhibition at 10 µM [24]: > 50%
- Activity [25]: 29.82%
- GI50 [26]: 1.95 µM
- TGI [26]: 5.37 µM
- CC50 [26, 34]: 41.7 µM
- GI50 [27]: 1.82 µM
- TGI [27]: 3.72 µM
- CC50 [27, 34]: 7.59 µM
- GI50 [28]: 2 µM
- TGI [28]: 4.07 µM
- CC50 [28, 34]: 8.32 µM
- Activity [29]: 3.59%
- Activity [30]: 3.31%
- GI50 [31]: 4.47 µM
- TGI [31]: 15.8 µM
- CC50 [31, 34]: 40.7 µM
- fold change (FC) [32]: 13.1
- selectivity ratio at 48 h [33]: 4
